Assay results as given in PMC8635029 (Frontiers in Pharmacology, 2021).

Tests used:
[1] = In vivo brain/plasma distribution in rats; conditions: rat, iv, SD rats, single 0.3 mg/kg i.v., read-out: brain/plasma concentration ratio
Procedure: SD rats (half male and half female) were intravenously given a single dose of 0.3 mg/kg HSK21542. The samples were collected at 0.083, 0.5, 1.5 and 4 h after dosing. The rats were anesthetized with isoflurane and then sacrificed by taking blood from the abdominal aorta. The whole brains were rapidly removed from the crania. The plasma (∼100 μL) was separated from the blood by centrifugating at 2000 ×g for 10 min at 4°C. The brains were rinsed with ice-cold normal saline, blotted dry, weighted and placed into a plastic tube. For 1.0 g of brain sample, 4 ml of acetonitrile-ultrapure water solution (1:4, v/v) was added to the tube. The brain samples were then homogenized for 120 s at 50 Hz and ultrasound was performed for 5 min. The plasma and the brain samples were analyzed using a LC-MS/MS assay as detailed in supplementary materials.
The plasma or brain homogenate was ice thawed. […] The resulting solution was then analyzed to determine the concentrations of HSK21542 on a LC-MS/MS system, which consisted of a DGU-20A5R degasser, a LC-30AD pump, a SIL-30AC autosampler, a CTO-20A column oven (Shimadzu, Japan) and an AB Sciex Triple Quad 5500 mass spectrometer (Sciex, Canada). […] Quantification was conducted in positive ion mode. The MRM transition of m/z 704.4→295.2 was used to quantify HSK21542.

[2] = tested on: mice; experiment: Locomotor activity test (sedation); conditions: 0.4 mg/kg, 15 min post-dosing
[3] = target: T1, Tachykinin NK1 (Homo sapiens, UniProt P25103); experiment: In vitro SafetyScreen panel; assay type: binding
T1 construct: Eurofins Discovery (contract panel) PP223
T1 sequence (P25103 whole entry): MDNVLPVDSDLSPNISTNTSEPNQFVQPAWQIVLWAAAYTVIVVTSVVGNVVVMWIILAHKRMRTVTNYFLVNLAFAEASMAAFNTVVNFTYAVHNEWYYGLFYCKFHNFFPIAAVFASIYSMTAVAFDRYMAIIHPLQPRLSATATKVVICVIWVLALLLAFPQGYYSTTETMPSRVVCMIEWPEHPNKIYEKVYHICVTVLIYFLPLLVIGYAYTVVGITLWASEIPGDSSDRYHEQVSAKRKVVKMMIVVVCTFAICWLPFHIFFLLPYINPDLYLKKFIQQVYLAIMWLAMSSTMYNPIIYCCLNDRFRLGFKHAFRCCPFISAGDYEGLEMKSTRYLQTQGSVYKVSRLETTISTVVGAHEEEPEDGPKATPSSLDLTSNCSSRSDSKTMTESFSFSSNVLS
Procedure: (§1) In vitro off-target pharmacological activities of HSK21542 were evaluated on 86 targets using a SafetyScreen panel (Item PP223, target selectivity panel) and the corresponding methods could be found at https://www.eurofinsdiscoveryservices.com/.

[4] = target: T2, Opiate δ1 (OP1, DOP) (Homo sapiens, UniProt P41143); experiment: In vitro SafetyScreen panel; assay type: binding
T2 construct: Eurofins Discovery (outsourced panel) PP223
T2 sequence (P41143 whole entry): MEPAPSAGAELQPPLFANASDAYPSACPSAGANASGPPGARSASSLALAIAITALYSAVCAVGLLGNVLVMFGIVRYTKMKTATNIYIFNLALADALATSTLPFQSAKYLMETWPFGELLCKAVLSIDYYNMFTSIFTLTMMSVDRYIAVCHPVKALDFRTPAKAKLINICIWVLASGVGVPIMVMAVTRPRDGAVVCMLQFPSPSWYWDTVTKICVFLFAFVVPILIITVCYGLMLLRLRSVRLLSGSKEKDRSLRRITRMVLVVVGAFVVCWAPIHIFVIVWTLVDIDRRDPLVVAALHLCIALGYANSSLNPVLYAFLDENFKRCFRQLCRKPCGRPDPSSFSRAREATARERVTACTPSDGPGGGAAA
Procedure: as §1

[5] = target: T3, Cannabinoid CB2 (Homo sapiens, UniProt P34972); experiment: In vitro SafetyScreen panel; assay type: binding
T3 construct: Eurofins Discovery (contract panel) PP223
Procedure: as §1

[6] = target: T4, Dopamine D2S (Homo sapiens, UniProt P14416); experiment: In vitro SafetyScreen panel; assay type: binding
T4 construct: Eurofins Discovery (contract panel) Item PP223
T4 sequence (P14416 1-414 isoform P14416-2): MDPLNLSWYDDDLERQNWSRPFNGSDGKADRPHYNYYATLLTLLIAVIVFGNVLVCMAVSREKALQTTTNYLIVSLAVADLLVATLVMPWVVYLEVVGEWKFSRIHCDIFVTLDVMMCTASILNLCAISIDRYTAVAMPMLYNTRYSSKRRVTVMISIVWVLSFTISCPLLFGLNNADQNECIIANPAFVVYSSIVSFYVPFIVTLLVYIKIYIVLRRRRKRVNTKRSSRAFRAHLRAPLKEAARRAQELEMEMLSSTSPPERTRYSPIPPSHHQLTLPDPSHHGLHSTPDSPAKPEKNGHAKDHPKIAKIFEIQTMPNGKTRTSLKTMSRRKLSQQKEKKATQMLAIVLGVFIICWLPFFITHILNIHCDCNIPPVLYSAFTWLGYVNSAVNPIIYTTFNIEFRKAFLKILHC
Procedure: as §1

[7] = target: T5, Adrenergic β2 (Homo sapiens, UniProt P07550); experiment: In vitro SafetyScreen panel; assay type: binding
T5 construct: Eurofins Discovery (contract panel) PP223
T5 sequence (P07550 whole entry): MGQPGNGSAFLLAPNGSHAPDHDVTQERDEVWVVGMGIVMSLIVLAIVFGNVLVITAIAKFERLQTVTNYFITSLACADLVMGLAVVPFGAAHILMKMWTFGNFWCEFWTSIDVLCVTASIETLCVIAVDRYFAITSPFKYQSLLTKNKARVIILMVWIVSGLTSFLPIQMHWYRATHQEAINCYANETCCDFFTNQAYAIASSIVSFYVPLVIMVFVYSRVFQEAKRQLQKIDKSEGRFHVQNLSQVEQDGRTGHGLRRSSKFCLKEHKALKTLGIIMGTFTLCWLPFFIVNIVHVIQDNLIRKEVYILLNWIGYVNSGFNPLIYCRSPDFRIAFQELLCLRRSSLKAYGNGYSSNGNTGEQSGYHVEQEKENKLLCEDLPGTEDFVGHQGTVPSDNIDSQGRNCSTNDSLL
Procedure: as §1

[8] = target: T6, Serotonin (5-Hydroxytryptamine) 5-HT1B (Homo sapiens, UniProt P28222); experiment: In vitro SafetyScreen panel; assay type: binding
T6 construct: Eurofins Discovery (outsourced panel) PP223
Procedure: as §1

[9] = target: T7, Dopamine D1 (Homo sapiens, UniProt P21728); experiment: In vitro SafetyScreen panel; assay type: binding
T7 construct: Eurofins Discovery (contract panel) Item PP223
T7 sequence (P21728 whole entry): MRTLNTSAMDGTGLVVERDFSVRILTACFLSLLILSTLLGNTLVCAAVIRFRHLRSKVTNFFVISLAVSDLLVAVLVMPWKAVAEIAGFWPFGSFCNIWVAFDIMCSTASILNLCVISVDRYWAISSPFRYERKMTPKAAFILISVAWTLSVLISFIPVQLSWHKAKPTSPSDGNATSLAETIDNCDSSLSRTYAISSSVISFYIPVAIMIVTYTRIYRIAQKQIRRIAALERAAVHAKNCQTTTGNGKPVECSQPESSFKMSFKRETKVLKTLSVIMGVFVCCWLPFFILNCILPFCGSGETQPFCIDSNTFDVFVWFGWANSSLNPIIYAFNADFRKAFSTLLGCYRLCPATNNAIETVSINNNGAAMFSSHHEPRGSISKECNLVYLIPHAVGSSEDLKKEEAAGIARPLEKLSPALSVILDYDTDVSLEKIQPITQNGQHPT
Procedure: as §1

[10] = target: T8, Neuropeptide YY1 (Homo sapiens, UniProt P25929); experiment: In vitro SafetyScreen panel; assay type: binding
T8 construct: Eurofins Discovery (outsourced panel) PP223
T8 sequence (P25929 whole entry): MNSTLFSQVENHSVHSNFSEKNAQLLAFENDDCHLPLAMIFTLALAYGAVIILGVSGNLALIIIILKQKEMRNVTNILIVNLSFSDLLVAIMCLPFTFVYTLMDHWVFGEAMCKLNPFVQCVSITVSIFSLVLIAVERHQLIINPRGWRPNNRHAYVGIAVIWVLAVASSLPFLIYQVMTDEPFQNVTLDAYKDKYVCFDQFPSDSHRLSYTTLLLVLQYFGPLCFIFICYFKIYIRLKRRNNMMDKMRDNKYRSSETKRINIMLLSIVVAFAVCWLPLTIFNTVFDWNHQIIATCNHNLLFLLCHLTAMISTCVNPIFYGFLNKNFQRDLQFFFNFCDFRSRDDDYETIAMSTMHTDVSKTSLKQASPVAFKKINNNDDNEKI
Procedure: as §1

[11] = target: T9, Angiotensin AT1 (Homo sapiens, UniProt P30556); experiment: In vitro SafetyScreen panel; assay type: binding
T9 construct: Eurofins Discovery (contract panel) PP223
Procedure: as §1

[12] = target: T10, Cholecystokinin CCK1 (CCKA) (Homo sapiens, UniProt P32238); experiment: In vitro SafetyScreen panel; assay type: binding
T10 construct: Eurofins Discovery (contract panel) PP223
T10 sequence (P32238 whole entry): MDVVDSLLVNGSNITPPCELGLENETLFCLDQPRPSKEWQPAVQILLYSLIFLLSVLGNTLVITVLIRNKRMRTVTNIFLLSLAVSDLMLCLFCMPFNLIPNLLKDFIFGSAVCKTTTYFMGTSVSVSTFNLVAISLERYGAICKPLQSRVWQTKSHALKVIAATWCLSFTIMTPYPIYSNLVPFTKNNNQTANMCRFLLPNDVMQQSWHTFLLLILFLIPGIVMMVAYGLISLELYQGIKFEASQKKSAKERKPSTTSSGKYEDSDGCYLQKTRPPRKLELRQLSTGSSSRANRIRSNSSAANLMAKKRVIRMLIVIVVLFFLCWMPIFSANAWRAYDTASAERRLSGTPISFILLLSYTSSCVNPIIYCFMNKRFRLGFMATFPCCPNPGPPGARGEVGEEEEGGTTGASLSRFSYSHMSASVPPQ
Procedure: as §1

[13] = target: T11, Cannabinoid CB1 (Homo sapiens, UniProt P21554); experiment: In vitro SafetyScreen panel; assay type: binding
T11 construct: Eurofins Discovery (contract panel) PP223
T11 sequence (P21554 whole entry): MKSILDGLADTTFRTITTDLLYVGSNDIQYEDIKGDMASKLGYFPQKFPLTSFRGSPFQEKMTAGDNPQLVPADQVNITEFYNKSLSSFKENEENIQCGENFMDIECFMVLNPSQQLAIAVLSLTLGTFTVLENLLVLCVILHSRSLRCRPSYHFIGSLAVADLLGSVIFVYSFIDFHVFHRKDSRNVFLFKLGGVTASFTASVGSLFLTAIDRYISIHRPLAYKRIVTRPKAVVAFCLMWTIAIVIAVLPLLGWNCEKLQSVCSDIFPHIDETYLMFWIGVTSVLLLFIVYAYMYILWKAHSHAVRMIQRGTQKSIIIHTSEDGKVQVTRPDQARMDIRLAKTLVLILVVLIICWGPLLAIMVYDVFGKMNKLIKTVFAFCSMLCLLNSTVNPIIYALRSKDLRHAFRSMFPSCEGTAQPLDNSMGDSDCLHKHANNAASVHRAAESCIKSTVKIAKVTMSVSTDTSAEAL
Procedure: as §1

[14] = target: T12, Serotonin (5-Hydroxytryptamine) 5-HT2B (Homo sapiens, UniProt P41595); experiment: In vitro SafetyScreen panel; assay type: binding
T12 construct: Eurofins Discovery (contract panel) PP223
Procedure: as §1

[15] = target: T13, human κ opioid receptor (Homo sapiens, UniProt P41145); experiment: [3H]diprenorphine binding assay
T13 construct: expressed in transfected cells; cell membranes
T13 sequence (P41145 whole entry): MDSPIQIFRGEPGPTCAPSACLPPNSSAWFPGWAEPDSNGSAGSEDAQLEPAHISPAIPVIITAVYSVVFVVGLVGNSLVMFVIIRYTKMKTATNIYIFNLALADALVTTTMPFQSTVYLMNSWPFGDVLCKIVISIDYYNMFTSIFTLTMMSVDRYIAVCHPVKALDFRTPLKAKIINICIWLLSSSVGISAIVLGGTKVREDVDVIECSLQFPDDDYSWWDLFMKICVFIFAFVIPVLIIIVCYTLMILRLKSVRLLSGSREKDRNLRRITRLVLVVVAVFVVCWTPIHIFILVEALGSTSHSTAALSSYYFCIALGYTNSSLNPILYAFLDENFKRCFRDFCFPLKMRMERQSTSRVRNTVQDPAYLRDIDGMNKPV

[16] = tested on: ICR mice; experiment: Measurement of respiration (whole body plethysmography); assay type: in vivo; conditions: 2 mg/kg
Procedure: A whole body plethysmography (DSI, US) was used to measure respiration in freely moving ICR mice (half male and half female) as described previously ([Manglik et al., 2016]; [Hill et al., 2018a]; [Hill et al., 2018b]) with some modifications. The respiratory frequency was recorded and then averaged for over 5-min period. The baseline values were recorded for 10 min before dosing. The mice were then removed from the chambers and given drugs, and respiration was then measured for 45 min.

[17] = tested on: C57BL/6J mice; experiment: Hot-plate test; assay type: in vivo; conditions: hot-plate test ED50 / writhing test ED50
Procedure: The hot-plate test was performed according to previous reports ([DeWire et al., 2013]; [Hill et al., 2018a]; [Wang et al., 2018]). Female C57BL/6J mice were individually placed on a hot plate at 56°C and the latency to licking or jumping was then recorded. A cut-off time of 30 s was imposed in order to prevent tissue damage. Before drug administration, the latency of each mouse was measured and defined as the pre-drug value. The animals with a pre-drug value of greater than 20 s were excluded.

[18] = target: T14, Peptidase, Angiotensin Converting Enzyme (Oryctolagus cuniculus, UniProt P12822); experiment: In vitro SafetyScreen panel; assay type: biochemical, rabbit
T14 construct: Eurofins Discovery (outsourced panel) PP223
T14 sequence (P12822 34-1310): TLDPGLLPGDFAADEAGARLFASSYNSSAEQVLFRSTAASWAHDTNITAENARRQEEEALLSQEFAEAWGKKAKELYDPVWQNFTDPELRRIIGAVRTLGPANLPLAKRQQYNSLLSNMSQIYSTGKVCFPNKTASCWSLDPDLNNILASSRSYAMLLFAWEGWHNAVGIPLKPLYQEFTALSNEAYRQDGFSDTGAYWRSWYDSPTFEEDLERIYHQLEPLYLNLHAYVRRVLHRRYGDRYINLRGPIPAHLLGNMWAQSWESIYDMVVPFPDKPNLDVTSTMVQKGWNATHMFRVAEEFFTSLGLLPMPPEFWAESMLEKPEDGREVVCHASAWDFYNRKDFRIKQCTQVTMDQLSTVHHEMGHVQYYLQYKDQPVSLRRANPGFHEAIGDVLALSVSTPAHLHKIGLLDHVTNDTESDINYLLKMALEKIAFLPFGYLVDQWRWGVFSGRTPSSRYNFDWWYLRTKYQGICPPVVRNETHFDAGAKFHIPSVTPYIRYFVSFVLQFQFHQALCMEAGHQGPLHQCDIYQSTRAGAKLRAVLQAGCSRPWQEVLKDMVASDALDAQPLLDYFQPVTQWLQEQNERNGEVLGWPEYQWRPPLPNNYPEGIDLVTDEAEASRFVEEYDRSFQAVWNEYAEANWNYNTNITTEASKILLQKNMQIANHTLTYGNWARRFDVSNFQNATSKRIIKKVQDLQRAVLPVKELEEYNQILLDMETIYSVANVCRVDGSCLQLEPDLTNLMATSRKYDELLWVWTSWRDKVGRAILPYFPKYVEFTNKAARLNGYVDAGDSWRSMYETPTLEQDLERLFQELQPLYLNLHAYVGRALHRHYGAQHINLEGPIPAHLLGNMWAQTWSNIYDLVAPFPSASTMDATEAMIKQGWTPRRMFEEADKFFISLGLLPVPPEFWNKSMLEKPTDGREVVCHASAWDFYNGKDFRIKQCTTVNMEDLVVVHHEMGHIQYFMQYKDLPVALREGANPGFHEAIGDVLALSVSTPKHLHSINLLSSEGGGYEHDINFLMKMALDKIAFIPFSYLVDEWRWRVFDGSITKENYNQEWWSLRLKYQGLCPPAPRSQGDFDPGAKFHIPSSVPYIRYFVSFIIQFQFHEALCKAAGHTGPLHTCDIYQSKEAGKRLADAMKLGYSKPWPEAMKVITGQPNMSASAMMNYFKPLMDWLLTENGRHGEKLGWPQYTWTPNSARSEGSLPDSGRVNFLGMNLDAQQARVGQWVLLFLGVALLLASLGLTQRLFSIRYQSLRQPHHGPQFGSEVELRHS
Procedure: as §1

CC(=O)N1CC2(CCN(C(=O)[C@@H](CCCCN)NC(=O)[C@@H](CC(C)C)NC(=O)[C@@H](Cc3ccccc3)NC(=O)[C@H](N)Cc3ccccc3)CC2)C1 [HSK21542, 7-(D-phenylalanyl-D-phenylalanyl-D-leucyl-D-lysyl)-2-acetyl-2,7-diazaspiro (3.5)nonane]
Kp [1]: 0.001
effect on locomotor activity / total distance traveled [2]: did not significantly affect
inhibition at 10 µM [3]: 21%
inhibition at 10 µM [4]: 5%
inhibition at 10 µM [5]: -30%
inhibition at 10 µM [6]: -15%
inhibition at 10 µM [7]: 3%
inhibition at 10 µM [8]: 1%
inhibition at 10 µM [9]: 3%
inhibition at 10 µM [10]: -8%
inhibition at 10 µM [11]: -7%
inhibition at 10 µM [12]: 5%
inhibition at 10 µM [13]: 47%
inhibition at 10 µM [14]: 0%
IC50 ([15]; HEK-293 membranes expressing human KOR, 0.6 nM [3H]diprenorphine, 25°C, 60 min, read-out: IC50 for inhibition of [3H]diprenorphine binding to KOR): 0.54 nM
Kd ([15]; competitive binding kinetic model, [3H]diprenorphine, read-out: Kd for binding to KOR (binding kinetics)): 0.068 nM
effect on respiratory rate [16]: no obvious effects
Therapeutic index [17]: 116.6
inhibition at 10 µM [18]: 5%
